Source: patent publication US7090985B2, “Methods for the identification of agents for the treatment of seizures, neurological diseases, endocrinopathies and hormonal diseases” (UCB, S.A., priority 2002, dated 2006)

What was measured:
[1] = biological target: T1, human SV2A (Homo sapiens, UniProt Q7L0J3); test: 3H-30889 intact cell binding to COS-7 cells transfected with SV2A; settings: displacement of 3H-30889, intact transfected COS-7 cells
T1 construct: expressed in transfected cells; host or cells: COS-7 cells, transient transfection (Lipofectamine 2000), vector pDEST 12.2
Description: The human SV2A coding region was transferred from the pDONR GATEWAY cloning vector to a pDEST 12.2 Gateway expression vector. This vector has a CMV promoter driving the introduced gene, and an SV40 ori, which allows very high levels of replication in the COS-7 cell line, which contains the large T antigen. In addition, the human SV2A coding region was transferred into a pDEST 40 Gateway expression vector. This vector is very similar to the 12.2 vector above, with a CMV promoter driving expression of hSV2A, and an SV40 ori, and a Neomycin resistance gene.
Lipofectamine 2000 (Invitrogen) transfection reagent was used to transfect DNA into 90% confluent COS-7 cells. Also, the same reagent was used to transfect the hSV2A containing vector into the PC12a cell line, and selecting for antibiotic resistance. Anti-SV2 polyclonal antibody (CalBiochem) was used to test for expression in either transfected COS-7 cells, or transfected PC 12a cells, of the SV2A product. Lysates of the COS-7 cells were collected at 18 hrs after transfection on an SDS-PAGE gel, transferred to a membrane, and probed with a polyclonal antibody against SV2A, in comparison to crude rat brain membranes (FIG. 12A). Also shown are lysates from a non-transfected COS-7 cells, non-transfected PC12a cells (low in LBS), PC12bs cells (high in LBS), or PC 12a cells transfected with hSV2A (FIG. 12B). No labeling of protein bands is observed in the untransfected COS-7 control, while the transfected COS-7 cells show multiple bands, with most density in the range of 80–120 kD, perhaps due to multiple glycosylation states of the expressed protein. […]
In a binding experiment, specific binding was measured of ^3H-30889 to COS-7 cells that have either been transfected with SV2A-12.2, or as controls, a β-gal expressing vector, or cells that have not been transfected (FIG. 13). […] The cells were lysed on the plate, transferred to scintillation vials with scintillation fluid and counted for ^3H decay emission. […]

[2] = system: audiogenic-susceptible mouse; settings: cited from earlier work
[3] = adjunctive therapy, adults; cited from earlier work
[4] = system: peripheral tissues including heart, kidneys, spleen, pancreas, adrenals, lungs and liver; settings: radiolabel studies; cited from earlier work
[5] = biological target: T2, levetiracetam binding site (LBS) (Rattus norvegicus, UniProt Q02563); parameters: from tissue; host or cells: rat brain (crude membranes; 25 µm brain slices for autoradiography); settings: cited from earlier work
[6] = system: peripheral tissues; test: [3H]ucb 30889 specific binding in peripheral tissues; settings: 150 μg of protein/assay, 1.3 nM radioligand; limit of detection Bmax 200 fmol/mg protein
Description: The limit of detection under the experimental conditions (150 μg of protein/assay and 1.3 nM of radioligand) was a Bmax of 200 fmol/mg protein.

[7] = system: PC12; test: [3H]ucb 30889 binding in cell types; parameters: species or system rat
Description: (§1) To identify and characterize the LBS in situ, ^[3H]ucb 30889 was used to map the LBS within the brain and to study both its cellular and subcellular distribution. […] Binding assays with rat brain membranes and various neuronal cell lines were performed under similar conditions. […] For photolabeling, membranes were incubated with […] ^[3H]ucb 30889 for 120 min at 4° C. in the same buffer, followed by irradiation with UV-light for 30 min.
(§2) Abbreviation: nd, not detected.

[8] = system: COS-7; test: [3H]ucb 30889 binding in cell types; settings: untransfected COS-7 cell line
Description: as §1, §2
In addition, a PC12 cell line subclone, PC12a, which is low in LBS, was used to establish a pool of PC12 cells expressing hSV2A under stable antibiotic selection.

[9] = biological target: T2, levetiracetam binding site (LBS); test: [3H]ucb 30889 binding on crude rat brain membranes (kinetics, saturation, competition)

T1 sequence (Q7L0J3 whole entry): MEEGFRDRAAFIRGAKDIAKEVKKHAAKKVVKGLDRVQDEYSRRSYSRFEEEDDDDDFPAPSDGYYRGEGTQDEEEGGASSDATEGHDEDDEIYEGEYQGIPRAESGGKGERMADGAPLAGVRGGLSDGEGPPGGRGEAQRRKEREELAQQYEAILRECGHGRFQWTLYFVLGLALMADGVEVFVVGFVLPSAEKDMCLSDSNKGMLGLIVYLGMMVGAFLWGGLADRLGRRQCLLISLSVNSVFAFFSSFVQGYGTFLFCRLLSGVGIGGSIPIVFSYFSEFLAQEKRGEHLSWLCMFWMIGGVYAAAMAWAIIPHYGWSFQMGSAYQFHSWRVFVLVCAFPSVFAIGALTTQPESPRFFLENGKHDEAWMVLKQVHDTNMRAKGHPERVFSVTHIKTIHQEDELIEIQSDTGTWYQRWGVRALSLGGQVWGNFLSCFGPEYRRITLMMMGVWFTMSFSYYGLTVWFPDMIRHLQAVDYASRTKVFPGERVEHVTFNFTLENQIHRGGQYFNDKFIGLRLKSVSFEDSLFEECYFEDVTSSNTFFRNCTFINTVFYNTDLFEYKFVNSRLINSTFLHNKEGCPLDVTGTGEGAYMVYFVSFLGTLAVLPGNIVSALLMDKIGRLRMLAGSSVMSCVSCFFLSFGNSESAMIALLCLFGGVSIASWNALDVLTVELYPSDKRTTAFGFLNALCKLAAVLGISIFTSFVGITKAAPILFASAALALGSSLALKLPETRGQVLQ
T2 sequence (Q02563 whole entry): as the sequence (Q7L0J3 whole entry) above, with D53E, S62A, T71A, E144D, A154T, G440S, S482A, I572V, M634L counted along it

Row | SMILES | IC50 against SV2A expressed in COS-7 cells (rank order) [1] | suppression of seizures [2] | efficacy in controlling refractory partial seizures [3] | tolerability [3] | specific binding [4] | affinity ([5]; rat hippocampal membranes) | binding capacity ([5]; rat hippocampal membranes) | specific binding [6] | Bmax [7] [sites/cell] | Kd [7] [nM] | binding [8] | Kd [9] [nM] | Ki [9] [nM] | times less affinity for the LBS than levetiracetam ([5]; rat brain membranes)
1 | CC[C@@H](C(N)=O)N1CCCC1=O [levetiracetam, (S)-α-ethyl-2-oxo-1-pyrrolidine acetamide] | same rank order as seen in studies of LBS in rat brain | unexpected potent ability | effective | well tolerated | no specific binding | modest affinity | high binding capacity | – | – | – | – | – | – | –
2 | CC[C@@H](C(N)=O)N1CC(c2cccc(N=[N+]=[N-])c2)CC1=O (stereo partly shown) [ucb 30889] | same rank order as seen in studies of LBS in rat brain | – | – | – | – | – | – | could not be detected | 79000 | 50 | no binding above background | 42 | 79.4 | –
3 | CC[C@H](C(N)=O)N1CCCC1=O [ucb L060] | same rank order as seen in studies of LBS in rat brain | – | – | – | – | – | – | – | – | – | – | – | – | about 1000 times
